Holding throughout (assay type): functional
Assay [1] concerns Culex quinquefasciatus. Description: Insecticidal activity against Culex quinquefasciatus assessed as contact mortality at 0.025 mg/ml at 12 hr by standard immersion method relative to control.
Assay [2] deals with Culex quinquefasciatus. As to the kind of experiment: Insecticidal activity against Culex quinquefasciatus assessed as contact mortality at 0.025 mg/ml at 4 hr by standard immersion method relative to control.
Assay [3] deals with Culex quinquefasciatus. As to the kind of experiment: Insecticidal activity against Culex quinquefasciatus assessed as contact mortality at 0.025 mg/ml at 24 hr by standard immersion method relative to control.
Assay [4] relates to Culex quinquefasciatus. Description: Insecticidal activity against Culex quinquefasciatus assessed as contact mortality at 0.025 mg/ml at 1 hr by standard immersion method relative to control.

Structures are written as SMILES.

As usually defined, the mortality is the share of the test organisms that died. Take `C=CC(OC(=O)C(c1ccc(Cl)cc1)C(C)C)c1ccc(OC(C)=O)c(OC)c1` (centres undefined): the mortality at 25 µg/mL was determined as 47% in assay [1], 25% in assay [2], 85% in assay [3] and 14% in assay [4].
For `C=CC(OC(=O)C(c1ccc(Cl)cc1)C(C)C)c1ccc(OCC)c(OC)c1` (centres undefined), in that order: 42%, 23%, 96% and 10%.
For `C=CC(OC(=O)C1C(C=C(C)C)C1(C)C)c1ccc(OC(C)=O)c(OC)c1` (centres undefined), the mortality at 25 µg/mL in assay [1] came out at 34%; in assay [2], 25%; in assay [3], 88%; in assay [4] it was 10%.
Take `C=CC(OC(=O)C1C(C=C(C)C)C1(C)C)c1ccc(OCC)c(OC)c1` (centres undefined): the mortality at 25 µg/mL amounted to 40% in assay [1], 22% in assay [2], 97% in assay [3] and 15% in assay [4].
Taken in the same sequence, the figures for `C=CCC1=C(C)C(OC(=O)C2C(C=C(C)C)C2(C)C)CC1=O` (centres undefined) [Allethrin] were 33%, 20%, 85% and 12%.
Taken in the same sequence, the figures for `CC(C)C(C(=O)OC(C#N)c1cccc(Oc2ccccc2)c1)c1ccc(Cl)cc1` (centres undefined) [FENVALERATE] were 40%, 18%, 88% and 10%.

The values above are taken from ChEMBL document CHEMBL3045308, “Design and synthesis of novel pyrethriods containing eugenol moiety” (2012).
